Experiment [1] concerns the target GABA-A receptor; anion channel. Put plainly: In vitro inhibition of [3H]muscimol to rat brain synaptic membranes. Format: cell membranes, Membrane.
For experiment [2], the target named is GABA-A receptor; anion channel. Kind of experiment: Inhibition of Gamma-aminobutyric acid A (GABA-A) receptor in vitro by whole-cell patch-clamp recording in cultured cerebral cortical neurones. The experiment is classed as functional, Rattus norvegicus. For orientation: Patch clamp records ionic current or voltage across a cell membrane.
For experiment [3], the target named is GABA-A receptor; anion channel. Put plainly: Inhibition against Gamma-aminobutyric acid A (GABA-A) receptor. Format: protein-complex assay, Rattus norvegicus.

Bounds are passed on as bounds.

For orientation: Ki means a measure of affinity in units of concentration, obtained from inhibition or displacement. High values mean lower affinity, low ones higher affinity. The compound `Oc1noc(C2CCNCC2)c1CCc1ccc2ccccc2c1` showed a Ki in experiment [1] of 0.49 µM.

For the compound `CCc1c(O)noc1C1CCNCC1`, in experiment [1], the inhibition constant Ki came to 6.3 µM.

The IC50 is the concentration needed to halve the response being measured. High values mean weaker potency, low ones greater potency. In experiment [1], `Oc1noc(C2CCNCC2)c1Cc1ccccc1` registered an inhibition constant Ki of 3.8 µM. 4 µM corresponded to half-maximal inhibition in experiment [2] (IC50).

As for `Cc1c(O)noc1C1CCNCC1`, the Ki in experiment [1] was 10 µM.

For `Oc1noc(C2CCNCC2)c1Cc1ccc2ccccc2c1`, the Ki in experiment [1] was 0.049 µM. Against the preceding compound, the Ki is about 200-fold lower.

Regarding `Oc1noc(C2CCNCC2)c1Cc1c2ccccc2cc2ccccc12`, affinity in experiment [1] was put at a Ki of 5.9 µM.

In experiment [3], `Cc1c(O)noc1CN` came in with a concentration for half-maximal inhibition (IC50) greater than 100 µM.

Values taken from ChEMBL document CHEMBL1133561, “A novel class of potent 3-isoxazolol GABA(A) antagonists: design, synthesis, and pharmacology” (J Med Chem, 2000).
